Results published in PubChem BioAssay AID256 (DTP/NCI, 2004).
Where “and” joins values, the source holds several entries; their conditions need not be identical. Equal entries are not always repeated. Toxic doses and inconclusive results are not listed.

System: CD2F1 mice, L1210 leukemia ip, survival T/C
Assay: NCI In Vivo Anticancer Drug Screen. Data for tumor model L1210 Leukemia (intraperitoneal) in CD2F1 (CDF1) mice
Details: higher = longer survival
Procedure, shortened: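 Activity against a transplanted murine tumor was judged by comparing the compound group with a vehicle group. The outcome in the treated animals was divided by that in the controls.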

COc1cc2oc3c(C)c(=O)cc4oc(-c5ccccc5)cc(c2c2c1CCC(c1ccccc1)O2)c43 (stereo unspecified)
T/C (endpoint: median survival time, dose: 0.85 mg/kg/injection, schedule: Q01DX005 (ip), vehicle: Klucel (hydroxypropylcellulose) (HPC)): 98 % of control | T/C (endpoint: median survival time, dose: 1.75 mg/kg/injection, schedule: Q01DX005 (ip), vehicle: Klucel (hydroxypropylcellulose) (HPC)): 98 % of control | T/C (endpoint: median survival time, dose: 3.5 mg/kg/injection, schedule: Q01DX005 (ip), vehicle: Klucel (hydroxypropylcellulose) (HPC)): 98 % of control and 102 % of control | T/C (endpoint: median survival time, dose: 7.0 mg/kg/injection, schedule: Q01DX005 (ip), vehicle: Klucel (hydroxypropylcellulose) (HPC)): 100 % of control and 102 % of control | T/C (endpoint: median survival time, dose: 12.5 mg/kg/injection, schedule: Q01DX005 (ip), vehicle: saline with Tween-80): 96 % of control | T/C (endpoint: median survival time, dose: 14.0 mg/kg/injection, schedule: Q01DX005 (ip), vehicle: Klucel (hydroxypropylcellulose) (HPC)): 94 % of control and 96 % of control | T/C (endpoint: median survival time, dose: 25.0 mg/kg/injection, schedule: Q01DX005 (ip), vehicle: saline with Tween-80): 95 % of control | T/C (endpoint: median survival time, dose: 28.0 mg/kg/injection, schedule: Q01DX005 (ip), vehicle: Klucel (hydroxypropylcellulose) (HPC)): 98 % of control | T/C (endpoint: median survival time, dose: 50.0 mg/kg/injection, schedule: Q01DX005 (ip), vehicle: saline with Tween-80): 96 % of control | T/C (endpoint: median survival time, dose: 56.0 mg/kg/injection, schedule: Q01DX005 (ip), vehicle: Klucel (hydroxypropylcellulose) (HPC)): 101 % of control | T/C (endpoint: median survival time, dose: 100.0 mg/kg/injection, schedule: Q01DX005 (ip), vehicle: saline with Tween-80): 91 % of control | T/C (endpoint: median survival time, dose: 200.0 mg/kg/injection, schedule: Q01DX005 (ip), vehicle: saline with Tween-80): 95 % of control

CC(=O)Nc1ccc2nc3ccc(NC(C)=O)cc3[n+](-c3ccccc3)c2c1
T/C (endpoint: mean survival time, dose: 16.0 mg/kg/injection, schedule: Q01DX008 (iv), vehicle: saline): 98 % of control | T/C (endpoint: mean survival time, dose: 25.0 mg/kg/injection, schedule: Q03DX003 (ip), vehicle: saline): 118 % of control | T/C (endpoint: mean survival time, dose: 25.0 mg/kg/injection, schedule: Q04DX003 (ip), vehicle: saline): 123 % of control | T/C (endpoint: mean survival time, dose: 32.0 mg/kg/injection, schedule: Q01DX008 (iv), vehicle: saline): 100 % of control | T/C (endpoint: mean survival time, dose: 50.0 mg/kg/injection, schedule: Q01DX007 (ip), vehicle: saline): 155 % of control | T/C (endpoint: mean survival time, dose: 50.0 mg/kg/injection, schedule: Q01DX009 (ip), vehicle: saline): 157 % of control | T/C (endpoint: mean survival time, dose: 64.0 mg/kg/injection, schedule: Q01DX008 (iv), vehicle: saline): 115 % of control | T/C (endpoint: mean survival time, dose: 100.0 mg/kg/injection, schedule: Q01DX007 (ip), vehicle: saline): 183 % of control | T/C (endpoint: mean survival time, dose: 100.0 mg/kg/injection, schedule: Q01DX009 (ip), vehicle: saline): 155 % of control

COc1c(C)c2c(c(O)c1CC(=O)Nc1ccccc1C(=O)O)C(=O)OC2
T/C (endpoint: mean survival time, dose: 100.0 mg/kg/injection, schedule: Q04DX002 (ip), vehicle: saline): 96 % of control | T/C (endpoint: mean survival time, dose: 200.0 mg/kg/injection, schedule: Q04DX002 (ip), vehicle: saline): 100 % of control | T/C (endpoint: mean survival time, dose: 400.0 mg/kg/injection, schedule: Q04DX002 (ip), vehicle: saline): 91 % of control

Cc1ccc(S(=O)(=O)OCOS(=O)(=O)c2ccc(C)cc2)cc1
T/C (endpoint: median survival time, dose: 50.0 mg/kg/injection, schedule: Q01DX009 (ip), vehicle: Klucel (hydroxypropylcellulose) (HPC)): 113 % of control | T/C (endpoint: median survival time, dose: 100.0 mg/kg/injection, schedule: Q01DX009 (ip), vehicle: Klucel (hydroxypropylcellulose) (HPC)): 107 % of control and 111 % of control | T/C (endpoint: median survival time, dose: 200.0 mg/kg/injection, schedule: Q01DX009 (ip), vehicle: Klucel (hydroxypropylcellulose) (HPC)): 122 % of control and 112 % of control | T/C (endpoint: median survival time, dose: 800.0 mg/kg/injection, schedule: Q01DX009 (ip), vehicle: Klucel (hydroxypropylcellulose) (HPC)): 124 % of control and 103 % of control

COc1cc([C@@H]2c3cc4c(c(O)c3C[C@H]3COC(=O)[C@@H]32)OCO4)cc(OC)c1OC
T/C (endpoint: mean survival time, dose: 10.0 mg/kg/injection, schedule: Q04DX003 (ip), vehicle: saline): 100 % of control | T/C (endpoint: mean survival time, dose: 20.0 mg/kg/injection, schedule: Q04DX003 (ip), vehicle: saline): 108 % of control | T/C (endpoint: mean survival time, dose: 40.0 mg/kg/injection, schedule: Q04DX003 (ip), vehicle: saline): 105 % of control | T/C (endpoint: mean survival time, dose: 80.0 mg/kg/injection, schedule: Q04DX003 (ip), vehicle: saline): 121 % of control | T/C (endpoint: mean survival time, dose: 125.0 micrograms/kg/injection, schedule: Q01DX009 (ip), vehicle: saline): 100 % of control | T/C (endpoint: mean survival time, dose: 250.0 micrograms/kg/injection, schedule: Q01DX009 (ip), vehicle: saline): 108 % of control | T/C (endpoint: mean survival time, dose: 500.0 micrograms/kg/injection, schedule: Q01DX009 (ip), vehicle: saline): 110 % of control | T/C (endpoint: mean survival time, dose: 2000.0 micrograms/kg/injection, schedule: Q01DX009 (ip), vehicle: saline): 124 % of control | T/C (endpoint: mean survival time, dose: 4000.0 micrograms/kg/injection, schedule: Q01DX009 (ip), vehicle: saline): 114 % of control

CCCC(=O)NNC(=O)c1ccccn1
T/C (endpoint: mean survival time, dose: 100.0 mg/kg/injection, schedule: Q01DX009 (ip), vehicle: saline sonified): 109 % of control | T/C (endpoint: mean survival time, dose: 100.0 mg/kg/injection, schedule: Q04DX003 (ip), vehicle: saline with Tween-80): 101 % of control | T/C (endpoint: mean survival time, dose: 200.0 mg/kg/injection, schedule: Q04DX003 (ip), vehicle: saline with Tween-80): 104 % of control | T/C (endpoint: mean survival time, dose: 400.0 mg/kg/injection, schedule: Q04DX003 (ip), vehicle: saline with Tween-80): 106 % of control
